pIC50: −log10 of the molar value. Several values for one entry are separate records, joined by “and”; a condition that tells them apart may be missing. Equal values may be shown once.
System: 616215-338-R-J1-PDC complex spheroid growth, % test/control
Test: Anticancer human tumor 616215-338-R-J1-PDC patient-derived colon adenocarcinoma cell line growth inhibition [Asc]
Details: for viability, T/C: stronger effect = lower value
Outline: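 Complex spheroids combining tumor cells with HUVEC endothelial cells and human MSCs, at 37 degrees C, 5% CO2; agents tested alone or combined, half-log dilutions from at or near clinical Cmax, or 10 microM if Cmax unknown.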
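Further: spheroids exposed to agents for seven days before readout.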
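Wherever viability, T/C is given: 100% = DMSO vehicle control viability.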

`CCN1CCN(Cc2ccc(Nc3ncc(F)c(-c4cc(F)c5nc(C)n(C(C)C)c5c4)n3)nc2)CC1` + CNC(C)C(=O)NC1CN(S(=O)(=O)c2cccc(S(=O)(=O)N3CCC4CCC(C(=O)NC(c5ccccc5)c5ccccc5)N4C(=O)C(NC(=O)C(C)NC)C3)c2)CCC2CCC(C(=O)NC(c3ccccc3)c3ccccc3)N2C1=O was tested. Which pIC50 (curve of first compound, second compound 0.00316 µM) did it give?
Its pIC50 is 6.58.

What about the pIC50 (curve of first compound, second compound 0.01 µM) of the same compound?
The pIC50 was 6.53.

And the pIC50 (curve of first compound, second compound 0.0316 µM)?
The pIC50 was 6.23.

What about the pIC50 (curve of first compound, second compound 0.1 µM) of the same compound?
Its pIC50 is 6.36.

And the pIC50 (curve of first compound, second compound 0.316 µM)?
Its pIC50 is 6.41.

And the pIC50 (curve of first compound, second compound 1 µM)?
Its pIC50 is 6.26.

And the viability, T/C (second compound 0.00316 µM, first compound 0.00316 µM)?
The viability, T/C was 105%.

What about the viability, T/C (second compound 0.00316 µM, first compound 0.01 µM) of the same compound?
Its viability, T/C is 105%.

And the viability, T/C (second compound 0.00316 µM, first compound 0.0316 µM)?
The viability, T/C was 92.1%.

And the viability, T/C (second compound 0.00316 µM, first compound 0.1 µM)?
The viability, T/C was 92.4%.

What about the viability, T/C (second compound 0.00316 µM, first compound 0.316 µM) of the same compound?
The viability, T/C was 41.5%.

What about the viability, T/C (second compound 0.00316 µM, first compound 1 µM) of the same compound?
Its viability, T/C is 16%.

And the viability, T/C (second compound 0.01 µM, first compound 0.00316 µM)?
The viability, T/C was 106%.

And the viability, T/C (second compound 0.01 µM, first compound 0.01 µM)?
The viability, T/C was 112%.

And the viability, T/C (second compound 0.01 µM, first compound 0.0316 µM)?
Its viability, T/C is 99.2%.

And the viability, T/C (second compound 0.01 µM, first compound 0.1 µM)?
The viability, T/C was 60.1%.

What about the viability, T/C (second compound 0.01 µM, first compound 0.316 µM) of the same compound?
Its viability, T/C is 58%.

What about the viability, T/C (second compound 0.01 µM, first compound 1 µM) of the same compound?
The viability, T/C was 18.8%.

What about the viability, T/C (second compound 0.0316 µM, first compound 0.00316 µM) of the same compound?
Its viability, T/C is 100%.

What about the viability, T/C (second compound 0.0316 µM, first compound 0.01 µM) of the same compound?
The viability, T/C was 114%.

And the viability, T/C (second compound 0.0316 µM, first compound 0.0316 µM)?
The viability, T/C was 90.9%.

And the viability, T/C (second compound 0.0316 µM, first compound 0.1 µM)?
Its viability, T/C is 90%.

What about the viability, T/C (second compound 0.0316 µM, first compound 0.316 µM) of the same compound?
The viability, T/C was 87.9%.

And the viability, T/C (second compound 0.0316 µM, first compound 1 µM)?
The viability, T/C was 19.5%.

And the viability, T/C (second compound 0.1 µM, first compound 0.00316 µM)?
Its viability, T/C is 107%.

What about the viability, T/C (second compound 0.1 µM, first compound 0.01 µM) of the same compound?
Its viability, T/C is 105%.

And the viability, T/C (second compound 0.1 µM, first compound 0.0316 µM)?
Its viability, T/C is 102%.

What about the viability, T/C (second compound 0.1 µM, first compound 0.1 µM) of the same compound?
Its viability, T/C is 67.7%.

And the viability, T/C (second compound 0.1 µM, first compound 0.316 µM)?
The viability, T/C was 73.3%.

And the viability, T/C (second compound 0.1 µM, first compound 1 µM)?
The viability, T/C was 18.9%.

What about the viability, T/C (second compound 0.316 µM, first compound 0.00316 µM) of the same compound?
The viability, T/C was 111%.

And the viability, T/C (second compound 0.316 µM, first compound 0.01 µM)?
Its viability, T/C is 107%.

What about the viability, T/C (second compound 0.316 µM, first compound 0.0316 µM) of the same compound?
The viability, T/C was 90.4%.

What about the viability, T/C (second compound 0.316 µM, first compound 0.1 µM) of the same compound?
The viability, T/C was 61.8%.

And the viability, T/C (second compound 0.316 µM, first compound 0.316 µM)?
Its viability, T/C is 61.3%.

What about the viability, T/C (second compound 0.316 µM, first compound 1 µM) of the same compound?
Its viability, T/C is 33.3%.

What about the viability, T/C (second compound 1 µM, first compound 0.00316 µM) of the same compound?
The viability, T/C was 100%.

What about the viability, T/C (second compound 1 µM, first compound 0.01 µM) of the same compound?
The viability, T/C was 111%.

What about the viability, T/C (second compound 1 µM, first compound 0.0316 µM) of the same compound?
The viability, T/C was 101%.

And the viability, T/C (second compound 1 µM, first compound 0.1 µM)?
Its viability, T/C is 101%.

And the viability, T/C (second compound 1 µM, first compound 0.316 µM)?
The viability, T/C was 67.8%.

What about the viability, T/C (second compound 1 µM, first compound 1 µM) of the same compound?
Its viability, T/C is 31.3%.

How did the viability, T/C (compound 0.00316 µM) turn out when `CCN1CCN(Cc2ccc(Nc3ncc(F)c(-c4cc(F)c5nc(C)n(C(C)C)c5c4)n3)nc2)CC1` was run?
The viability, T/C was 98.2% and 91.4% and 109%.

What about the viability, T/C (compound 0.01 µM) of the same compound?
The viability, T/C was 97.2% and 108% and 113%.

And the viability, T/C (compound 0.0316 µM)?
The viability, T/C was 96.5% and 104% and 78.5%.

What about the viability, T/C (compound 0.1 µM) of the same compound?
The viability, T/C was 102% and 106% and 82.5%.

And the viability, T/C (compound 0.316 µM)?
The viability, T/C was 122% and 102% and 65.8%.

And the viability, T/C (compound 1 µM)?
Its viability, T/C is 130% and 117% and 34.9%.

What about the pIC50 (curve of compound) of the same compound?
Its pIC50 is < 6.00 and 6.27.

— PubChem BioAssay AID1963448 (Molecular Pharmacology Branch, DTP, NCI, 2024)
